From patent US9073862B2, “Substituted 2-oxy-quinoline-3-carboxamides as KCNQ2/3 modulators” (Grünenthal GmbH, priority 2010, dated 2015)

What was measured:
[1] = system: withdrawal reflex of the rat tail (tail flick) in response to a radiant heat beam; test: Low-intensity tail flick test (rat); format: in vivo; details: po, peroral, read-out: Low intensity tail flick, rat, peroral, MPE (dose)
Protocol: Method II. Low-Intensity Tail Flick Test (Rat)
In the low-intensity tail flick test, the determination of the antinociceptive effect of the compounds according to the invention towards an acute noxious thermal stimulus is carried out by measuring the withdrawal reflex of the rat tail (tail flick) in response to a radiant heat beam (analgesia meter; model 2011 of the company Rhema Labortechnik, Hofheim, Germany) according to the method described by D'Amour and Smith (J. Pharm. Exp. Ther. 72, 74 79 (1941). To this end, the rats were placed in a plexiglas restrainer, and a low-intensity radiant heat beam (48° C.) was focused onto the dorsal surface of the tail root. The stimulus intensity was adjusted to result in a mean pre-drug control withdrawal latency of about 7 s, thus also allowing a supraspinal modulation of the spinally mediated acute nociceptive reflex. A cutoff time of 30 s was applied to avoid tissue damage. Male Sprague-Dawley rats (Janvier, Le Genest St. Isle, Frankreich) with weights of 200-250 g were used. 10 rats were used per group. Before administration of a compound according to the invention, the animals were pre-tested twice in the course of five minutes and the mean of these measurements was calculated as the pre-test mean. The antinociceptive effect was determined at 20, 40 and 60 min after peroral compound administration. The antinociceptive effect was calculated based on the increase in the tail withdrawal latency according to the following formula and is expressed as percentage of the maximum possible effect (MPE [%]): MPE=[(T1−T0)/(T2−T0)]*100
In this, T0 is the control latency time before and T1 the latency time after administration of the compound, T2 is the cutoff time and MPE is the maximum possible effect. Employing variant analysis (repeated measures ANOVA) allowed testing of statistically significant differences between the compounds according to the invention and the vehicle group. The significance level was set to p≦0.05. To determine the dose dependency, the particular compound according to the invention was administered in 3-5 logarithmically increasing doses, including a threshold dose and a maximum effective dose, and the ED50 values were determined with the aid of regression analysis. The ED50 calculation was performed at the time of maximum efficacy (usually 20 min after administration of the compounds).

KCNQ2/3 channels = target: T1, KCNQ2/3 channels (Homo sapiens, UniProt O43525+O43526); test: Fluorescence assay using a voltage sensitive dye (fluorimetry); format: cell-based; details: CHO-K1 cells expressing KCNQ2/3 channels; for Emax: relative to retigabine = 100%, read-out: Fluorimetry % efficacy (retigabine = 100%)
T1 construct: expressed in transfected cells; host or cells: CHO-K1
Protocol: Method I. Fluorescence Assay Using a Voltage Sensitive Dye (Fluorimetry)
[…] CHO-K1 cells expressing KCNQ2/3 channels are cultivated adherently at 37° C., 5% CO2 and 95% humidity in cell culture bottles (e.g. 80 cm^2 TC flasks, Nunc) with DMEM-high glucose (Sigma Aldrich, D7777) including 10% FCS (PAN Biotech, e.g. 3302-P270521) or alternatively MEM Alpha Medium (1×, liquid, Invitrogen, #22571), 10% fetal calf serum (FCS) (Invitrogen, #10270-106, heat-inactivated) and the necessary selection antibiotics.
Before being sown out for the measurements, the cells are washed with 1×DPBS buffer Ca^2+/Mg^2+-free (e.g. Invitrogen, #14190-094) and detached from the bottom of the culture vessel by using Accutase (PAA Laboratories, #L11-007) (incubation with Accutase for 15 min at 37° C.). The cell number is determined using a CASY™ cell counter (TCC, Schärfe System). Depending on the optimal density for each individual cell line, 20,000-30,000 cells/well/100 μl are seeded onto 96-well Corning™ CellBIND™ assay plates (Flat Clear Bottom Black Polystyrene Microplates, #3340). Freshly seeded cells are then left to settle for one hour at room temperature, followed by incubation for 24 hours at 37° C., 5% CO2 and 95% humidity.
The voltage-sensitive fluorescent dye from the Membrane Potential Assay Kit (Red™ Bulk format part R8123 for FLIPR, MDS Analytical Technologies™) is prepared by dissolving the contents of one vessel Membrane Potential Assay Kit Red Component A in 200 ml of extracellular buffer (ES buffer, 120 mM NaCl, 1 mM KCl, 10 mM HEPES, 2 mM CaCl2, 2 mM MgCl2, 10 mM glucose; pH 7.4). After removal of the nutrient medium, the cells are washed once with 200 μl of ES buffer, then loaded for 45 min at room temperature in 100 μl of dye solution in the dark.
Fluorescence measurements are carried out in a BMG Labtech FLUOstar™, BMG Labtech NOVOstar™ or BMG Labtech POLARstar™ instrument (525 nm excitation, 560 nm emission, Bottom Read mode). After incubation with the dye, 50 μl of the test substances in the desired concentrations, or 50 μl of ES buffer for control purposes, are applied to the wells of the assay plate and incubated for 30 min at room temperature while being shielded from light. The fluorescence intensity of the dye is then measured for 5 min and the fluorescence value F1 of each well is thus determined at a given, constant time. 15 μl of a KCl solution are then added to each well (final concentration of potassium ions 92 mM). The change in fluorescence intensity is subsequently monitored until all the relevant values have been obtained (mainly 5-30 min). At a given time post KCl application, a fluorescence value F2 is determined, in this case at the time of the fluorescence peak.
For calculation, the fluorescence intensity F2 is corrected for the fluorescence intensity F1, and the activity (ΔF/F) of the target compound on the potassium channel is determined as follows:
In order to determine whether a substance has agonistic activity,
[formula] can be related to
[formula] of control wells.
[formula] is determined by adding to the well only the buffer solution instead of the test substance, determining the value F1K of the fluorescence intensity, adding the potassium ions as described above, and measuring a value F2K of the fluorescence intensity. F2K and F1K are then calculated as follows: […]
A substance has an agonistic activity on the potassium channel if
[formula] is greater than
Independently of the comparison of
[formula] it is possible to conclude that a target compound has agonistic activity if
[formula] increases dose dependently.
Calculations of EC50 and IC50 values are carried out with the aid of ‘Prism v4.0’ software (Graph Pad Software™).

Structure (SMILES) | inhibition in vivo at 6.81 mg/kg [1] | EC50 (KCNQ2/3 channels) | Emax (KCNQ2/3 channels) | inhibition in vivo at 10 mg/kg [1]
CCOc1nc2cc(C(F)(F)F)ccc2c(C)c1C(=O)NCc1ccc(F)c(C)c1 [Example 24, 2-ethoxy-N-[(4-fluoro-3-methyl-phenyl)-methyl]-4-methyl-7-(trifluoromethyl)-quinoline-3-carboxylic acid amide] | 17% | 53 nM | 108% | 
COc1nc2cc(C(F)(F)F)ccc2c(C)c1C(=O)NCCCC(C)(C)C [Example 29, N-(4,4-dimethyl-pentyl)-2-methoxy-4-methyl-7-(trifluoromethyl)-quinoline-3-carboxylic acid amide] |  | 28 nM | 244% | 28%
CCOc1nc2cc(C#N)ccc2c(C)c1C(=O)NCc1ccc(F)cc1 [Example 35, 7-cyano-2-ethoxy-N-[(4-fluorophenyl)-methyl]-4-methyl-quinoline-3-carboxylic acid amide] | 32% | 82 nM | 112% | 
Cc1c(C(=O)NCc2cccc(F)c2)c(OCC(F)(F)F)nc2cc(C(F)(F)F)ccc12 [Example 50, N-[(3-fluorophenyl)-methyl]-4-methyl-2-(2,2,2-trifluoro-ethoxy)-7-(trifluoromethyl)-quinoline-3-carboxylic acid amide] |  | 25 nM | 108% | 24%
